# Experiments:
# Type in all cases: cell-based
# [1] = molecular target: T1, human muscarinic M3 receptor (Homo sapiens, UniProt P20309); assay: Alphascreen Surefire phospho-ERK1/2 functional assay, M3; conditions: for EC50: CHO cells stably expressing human M3, phospho-ERK1/2, read-out: pEC50 M3 (converted); for Emax: CHO, read-out: M3 % Emax cf. ACh
# T1 construct: expressed in transfected cells
# Method: (§1) Functional assays were performed using the Alphascreen Surefire phospho-ERK1/2 assay (Crouch & Osmond, Comb. Chem. High Throughput Screen, 2008). ERK1/2 phosphorylation is a downstream consequence of both Gq/11 and Gi/o protein coupled receptor activation, making it highly suitable for the assessment of M1, M3 (Gq/11 coupled) and M2, M4 receptors (Gi/o coupled), rather than using different assay formats for different receptor subtypes. CHO cells stably expressing the human muscarinic M1, M2, M3 or M4 receptor were plated (25K/well) onto 96-well tissue culture plates in MEM-alpha+10% dialysed FBS. Once adhered, cells were serum-starved overnight. Agonist stimulation was performed by the addition of 5 μL agonist to the cells for 5 min (37° C.). Media was removed and 50 μL of lysis buffer added. After 15 min, a 4 μL sample was transferred to 384-well plate and 7 μL of detection mixture added. Plates were incubated for 2 h with gentle agitation in the dark and then read on a PHERAstar plate reader.
# (§2) pEC50 and Emax figures were calculated from the resulting data for each receptor subtype.
# [2] = molecular target: T2, human muscarinic M4 receptor (Homo sapiens, UniProt P08173); assay: Alphascreen Surefire phospho-ERK1/2 functional assay, M4; conditions: for EC50: phospho-ERK1/2, read-out: pEC50 M4 (converted); for Emax: CHO, read-out: M4 % Emax cf. ACh, CHO cells stably expressing human M4
# T2 construct: expressed in transfected cells
# T2 sequence (P08173 1-479): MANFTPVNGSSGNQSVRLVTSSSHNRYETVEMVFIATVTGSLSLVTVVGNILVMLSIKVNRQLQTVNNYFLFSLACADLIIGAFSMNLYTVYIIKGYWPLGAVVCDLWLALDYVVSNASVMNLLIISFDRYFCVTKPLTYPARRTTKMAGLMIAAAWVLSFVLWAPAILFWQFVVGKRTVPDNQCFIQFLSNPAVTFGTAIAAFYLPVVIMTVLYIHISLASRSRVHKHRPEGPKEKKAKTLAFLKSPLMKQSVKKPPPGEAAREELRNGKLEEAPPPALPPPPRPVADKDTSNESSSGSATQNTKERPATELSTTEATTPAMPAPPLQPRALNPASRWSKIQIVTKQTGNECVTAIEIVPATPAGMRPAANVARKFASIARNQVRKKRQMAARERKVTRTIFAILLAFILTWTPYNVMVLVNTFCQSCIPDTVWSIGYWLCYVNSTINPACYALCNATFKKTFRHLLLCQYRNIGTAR
# Method: as §1, §2
# [3] = molecular target: T3, human muscarinic M1 receptor (Homo sapiens, UniProt P11229); assay: Alphascreen Surefire phospho-ERK1/2 functional assay, M1; conditions: for EC50: phospho-ERK1/2, read-out: pEC50 M1 (converted); for Emax: CHO, read-out: M1 % Emax cf. ACh, CHO cells stably expressing human M1
# T3 sequence (P11229 1-460): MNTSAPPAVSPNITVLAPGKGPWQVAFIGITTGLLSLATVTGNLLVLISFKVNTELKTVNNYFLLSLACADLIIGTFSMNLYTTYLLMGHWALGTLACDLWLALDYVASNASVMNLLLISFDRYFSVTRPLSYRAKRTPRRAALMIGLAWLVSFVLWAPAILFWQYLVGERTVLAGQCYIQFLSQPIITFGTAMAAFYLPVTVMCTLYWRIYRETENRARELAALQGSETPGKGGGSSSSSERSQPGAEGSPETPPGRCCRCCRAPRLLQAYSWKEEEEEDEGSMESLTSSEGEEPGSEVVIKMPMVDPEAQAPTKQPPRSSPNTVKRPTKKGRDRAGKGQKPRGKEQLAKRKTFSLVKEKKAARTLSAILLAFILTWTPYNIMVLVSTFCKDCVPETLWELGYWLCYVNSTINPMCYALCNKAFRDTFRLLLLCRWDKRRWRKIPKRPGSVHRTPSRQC
# Method: as §1, §2
# [4] = molecular target: T4, human muscarinic M2 receptor (Homo sapiens, UniProt P08172); assay: Alphascreen Surefire phospho-ERK1/2 functional assay, M2; conditions: for EC50: CHO cells stably expressing human M2, phospho-ERK1/2, read-out: pEC50 M2 (converted); for Emax: CHO, read-out: M2 % Emax cf. ACh
# T4 sequence (P08172 1-466): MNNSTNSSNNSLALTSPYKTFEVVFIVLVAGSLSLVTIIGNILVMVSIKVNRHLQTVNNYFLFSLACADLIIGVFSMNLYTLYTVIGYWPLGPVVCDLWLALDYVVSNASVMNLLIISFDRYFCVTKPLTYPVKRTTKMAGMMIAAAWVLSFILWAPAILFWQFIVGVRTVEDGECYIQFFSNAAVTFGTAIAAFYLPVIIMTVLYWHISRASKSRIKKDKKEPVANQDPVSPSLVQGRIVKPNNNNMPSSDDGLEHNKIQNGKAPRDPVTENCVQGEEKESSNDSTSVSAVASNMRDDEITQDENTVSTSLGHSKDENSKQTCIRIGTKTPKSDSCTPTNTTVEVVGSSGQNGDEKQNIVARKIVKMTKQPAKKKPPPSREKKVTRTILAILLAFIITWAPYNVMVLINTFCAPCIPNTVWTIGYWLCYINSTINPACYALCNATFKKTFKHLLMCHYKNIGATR
# Method: as §1, §2
# [5] = CHO cells stably expressing human M4
# [6] = CHO cells stably expressing human M1
# T1 sequence (P20309 whole entry): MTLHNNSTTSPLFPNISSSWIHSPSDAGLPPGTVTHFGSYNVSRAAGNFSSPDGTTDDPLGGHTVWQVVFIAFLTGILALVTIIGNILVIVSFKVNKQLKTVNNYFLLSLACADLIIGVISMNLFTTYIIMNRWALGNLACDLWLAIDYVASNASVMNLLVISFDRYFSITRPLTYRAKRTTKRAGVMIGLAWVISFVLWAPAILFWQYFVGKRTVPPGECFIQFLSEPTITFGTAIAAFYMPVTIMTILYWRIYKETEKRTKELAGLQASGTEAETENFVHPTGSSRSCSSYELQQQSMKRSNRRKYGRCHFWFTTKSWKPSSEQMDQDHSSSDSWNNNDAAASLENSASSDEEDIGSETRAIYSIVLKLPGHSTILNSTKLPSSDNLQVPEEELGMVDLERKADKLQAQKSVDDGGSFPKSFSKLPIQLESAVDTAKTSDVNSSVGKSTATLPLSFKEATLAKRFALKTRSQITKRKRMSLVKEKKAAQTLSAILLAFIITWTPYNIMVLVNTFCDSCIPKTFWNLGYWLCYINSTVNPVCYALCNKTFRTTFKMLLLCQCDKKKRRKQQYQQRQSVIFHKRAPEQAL
SMILES,EC50 [1],Emax [1],"EC50 [2, 5]",Emax ([2]; Emax relative to ACh),"EC50 [3, 6]",Emax ([3]; Emax relative to ACh),EC50 [4],Emax [4],"M4 % Emax cf. ACh ([2]; CHO cells stably expressing human M4, Emax relative to ACh)","M1 % Emax cf. ACh ([3]; CHO cells stably expressing human M1, Emax relative to ACh)"
"CCOC(=O)N[C@H]1CCN(C2CCC(C#N)(c3ccc(F)cn3)CC2)C1 (single isomer, unassigned) [1-14 Isomer 2]",> 20000 nM,0%,> 20000 nM,32%,123 nM,89%,> 20000 nM,2%,,
"CCOC(=O)N1CCCN(C2CCC3(CC2)C(=O)Nc2ccc(OC)cc23)CC1 (single isomer, unassigned) [4-12 isomer 1]",> 20000 nM,34%,> 20000 nM,10%,89.1 nM,107%,> 20000 nM,3%,,
CCOC(=O)N1CCCN(C2CCC(C#N)(c3ccncc3)CC2)CC1 (mixture of isomers) [3-12 mixture of isomers],> 20000 nM,3%,1070 nM,48%,155 nM,116%,> 20000 nM,5%,,
N#CC1(c2ccccc2)CCC(N2CCCN(C(=O)OCCF)CC2)CC1 (mixture of isomers) [3-29 mixture of isomers],> 20000 nM,3%,200 nM,68%,537 nM,75%,> 20000 nM,3%,,
"Cc1ccc2c(c1)C1(CCC(N3CCC4(CC(c5nc(C)no5)C4)C3)CC1)C(=O)N2 (single isomer, unassigned) [26-1 Isomer 2]",> 20000 nM,7%,40.7 nM,50%,15.1 nM,74%,> 20000 nM,22%,,
CCOC(=O)N1CCCN(C2CCC(C#N)(c3ccccc3Cl)CC2)CC1 (mixture of isomers) [3-4 mixture of isomers],> 20000 nM,40%,832 nM,46%,295 nM,86%,> 20000 nM,12%,,
"CCOC(=O)N[C@H]1CCN(C2CCC(C#N)(c3cccc(Cl)c3)CC2)C1 (single isomer, unassigned) [1-10 Isomer 2]",> 20000 nM,9%,> 20000 nM,24%,28.2 nM,106%,> 20000 nM,6%,,
"CCOC(=O)N(C)[C@@H]1CCN(C2CCC3(CC2)C(=O)Nc2ncccc23)C1 (single isomer, unassigned) [2-18 isomer 1]",> 20000 nM,11%,174 nM,141%,148 nM,122%,> 20000 nM,21%,,
CCOC(=O)N1CCCN(C2CCC(C#N)(c3ccc(C(F)(F)F)cn3)CC2)CC1 (mixture of isomers) [3-21 mixture of isomers],> 20000 nM,2%,> 20000 nM,53%,724 nM,90%,> 20000 nM,3%,,
"CCOC(=O)N[C@H]1CCN(C2CCC3(CC2)C(=O)Nc2ncc(Cl)cc23)C1 (single isomer, unassigned) [2-17 isomer 1]",> 20000 nM,7%,> 20000 nM,18%,56.2 nM,48%,> 20000 nM,7%,,
CCOC(=O)N1CCCN(C2CCC(C#N)(c3ccccc3C)CC2)CC1 (mixture of isomers) [3-7 mixture of isomers],> 20000 nM,34%,1700 nM,48%,389 nM,101%,> 20000 nM,35%,,
"CC#CCOC(=O)N1CCCN(C2CCC(C#N)(c3ccc(OC)cn3)CC2)CC1 (single isomer, unassigned) [3-32 Isomer 1]",> 20000 nM,0%,759 nM,30%,22.4 nM,106%,> 20000 nM,2%,,
"CCOC(=O)N[C@@H]1CCN(C2CCC(C#N)(c3ccccc3F)CC2)C1 (single isomer, unassigned) [1-5 Isomer 2]",> 20000 nM,33%,> 20000 nM,46%,115 nM,125%,> 20000 nM,5%,,
"CCOC(=O)N1CCCN(C2CCC3(CC2)C(=O)Nc2cc(C)ccc23)CC1 (single isomer, unassigned) [4-6 isomer 2]",> 15800 nM,17%,75.9 nM,,36.3 nM,,> 15800 nM,39%,116%,130%
"CCOC(=O)N1CC2(CCN(C3CCC(C#N)(c4ccccc4)CC3)CC2)C1 (single isomer, unassigned) [11-1 Isomer 2]",> 20000 nM,3%,> 20000 nM,19%,275 nM,105%,> 20000 nM,1%,,
CCOC(=O)N1CCCN(C2CCC(C#N)(c3ccc(Cl)cc3)CC2)CC1 (mixture of isomers) [3-6 mixture of isomers],> 20000 nM,38%,100 nM,62%,9.55 nM,105%,> 20000 nM,11%,,
"N#CC1(c2ccccc2)CCC(N2CC3(CC(c4nc(C(F)(F)F)no4)C3)C2)CC1 (single isomer, unassigned) [20-1 Isomer 2]",> 20000 nM,30%,126 nM,58%,219 nM,78%,> 20000 nM,61%,,
"CCOC(=O)N[C@H]1CCN(C2CCC3(CC2)C(=O)Nc2ccc(C)cc23)C1 (single isomer, unassigned) [2-5 isomer 1]",> 20000 nM,15%,> 15800 nM,5%,7.76 nM,49%,> 20000 nM,13%,,
"CCOC(=O)N[C@H]1CCN(C2CCC3(CC2)C(=O)Nc2cc(C)ccc23)C1 (single isomer, unassigned) [2-4 isomer 1]",> 15800 nM,11%,> 15800 nM,11%,66.1 nM,65%,> 15800 nM,3%,,

# — patent publication US10759751B2, “Substituted spirocyclohexanes as muscarinic M1 receptor and/or M4 receptor agonists” (Heptares Therapeutics Limited, priority 2016, dated 2020)
